Measured values from patent publication US9296698B2, “Amino heteroaryl compounds as beta-secretase modulators and methods of use” (Amgen Inc., priority 2009, dated 2016).
pIC50: −log10 of the molar value. Where two headings read alike, the source gives them in different places.

Columns and labels:
[1] = target: BACE 1 (Beta Secretase enzyme) (Homo sapiens, UniProt P56817); assay: In vitro enzymatic BACE FRET assay; assay type: biochemical
Description: In Vitro Enzymatic BACE FRET (Fluorescence Resonance Energy Transfer) Assay (Enzyme Assay Data in Table 1)
The assay buffer used in this screen is 0.05 M acetate, pH 4.2, 10% DMSO final, 100 uM genapol (which is a nonionic detergent, below its Critical Micelle Concentration). […] The assay is effectively started by the addition of FRET substrate (50 nM) and the combination is incubated for one hour. The FRET assay is terminated with by addition of Tris buffer, which raises the pH to neutrality, and the fluorescence is determined. The FRET substrate is a peptide with commercially available fluorophore and quencher, on opposite sides of the BACE cleavage site.

[2] = test system: Aβ40 in conditioned medium of cells stably expressing Amyloid Precursor Protein (APP); assay: In vitro BACE cell-based assay (HEK cell assay), Aβ40 sandwich ELISA; conditions: Homo sapiens
Description: In Vitro BACE Cell-Based Assay:
The cell-based assay measures inhibition or reduction of Aβ40 in conditioned medium of test compound treated cells expressing amyloid precursor protein.
Cells stably expressing Amyloid Precursor Protein (APP) were plated at a density of 40K cells/well in 96 well plates (Costar). The cells were cultivated for 24 hours at 37° C. and 5% CO2 in DMEM supplemented with 10% FBS. The test compounds were then added to cells in 10-point dose response concentrations with the starting concentration being either 100 μM or 10 μM. The compounds were diluted from stock solutions in DMSO and the final DMSO concentration of the test compounds on cells was 0.1%. After 24 h of incubation with the test compounds the supernatant conditioned media was collected and the Aβ 40 levels were determined using a sandwich ELISA. The IC50 of the compound was calculated from the percent of control or percent inhibition of Aβ 40 as a function of the concentration of the test compound.
The sandwich ELISA to detect Aβ 40 was performed in 96 well microtiter plates, which were pre-treated with goat anti-rabbit IgG (Pierce). The capture and detecting antibody pair that were used to detect Aβ 40 from cell supernatants were affinity purified pAb40 (Biosource) and biotinylated 6E10 (Signet Labs Inc.), respectively. The optimal concentration for the pAb40 antibody was 3 μg/ml in Superblock/TBS (Pierce) that was supplemented with 0.05% Tween 20 (Sigma).
Cellular supernatants were incubated with the capture antibody for 3 h at 4° C., followed by 3 wash steps in TBS-tween (0.05%). The detecting antibody incubation was for 2 h at 4° C., again followed by the wash steps as described previously. The final readout of the ELISA is Time-Resolved Fluorescence (counts per minute) using Delfia reagents Streptavidin-Europium and Enhancement solutions (Perkin Elmer) and the Victor 2 multilabel counter (Perkin Elmer).

[3] = IC50 range symbols, Table 1, read-out: BACE 1 FRET assay
[4] = HEK293, 24 h, IC50 range symbols, Table 1, Aβ40, 24 h incubation, read-out: HEK cell assay

BACE 1 (Beta Secretase enzyme), sequence (P56817 46-501, species assumed): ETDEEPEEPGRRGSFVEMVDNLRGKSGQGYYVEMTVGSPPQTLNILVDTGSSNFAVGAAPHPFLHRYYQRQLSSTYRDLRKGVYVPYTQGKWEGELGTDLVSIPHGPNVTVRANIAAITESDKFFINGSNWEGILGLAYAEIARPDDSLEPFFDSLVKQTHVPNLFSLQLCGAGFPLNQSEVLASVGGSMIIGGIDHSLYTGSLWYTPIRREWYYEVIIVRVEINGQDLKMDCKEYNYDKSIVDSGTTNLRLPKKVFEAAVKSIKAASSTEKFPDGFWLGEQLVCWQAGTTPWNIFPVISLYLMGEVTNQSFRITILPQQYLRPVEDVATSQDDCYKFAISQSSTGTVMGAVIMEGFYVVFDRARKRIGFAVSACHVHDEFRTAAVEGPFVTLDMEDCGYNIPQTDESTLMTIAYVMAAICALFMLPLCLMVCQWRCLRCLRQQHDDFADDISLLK

In the case of `CCn1ccc(CNC(=O)CCc2cc3cc(-c4ccccc4C)ccc3nc2N)n1` [Example 59, 3-(2-amino-6-o-tolylquinolin-3-yl)-N-((1-ethyl-1H-pyrazol-3-yl)methyl)propanamide], the pIC50 [1, 3] was > 6.30 and the pIC50 [2, 4] was 5.30 to 6.00.
In the case of `Cc1ccccc1-c1ccc2nc(N)c(CC(C)C(=O)NCC3CCCCC3)cc2c1` (stereo not drawn) [Example 22, 3-(2-amino-6-o-tolylquinolin-3-yl)-N-(cyclohexylmethyl)-2-methylpropanamide], the pIC50 [2, 4] was > 6.30.
For `Cc1nccn1-c1ccc2nc(N)c(CCC(=O)NCC3CCCCC3)cc2c1` [Example 4, 3-(2-amino-6-(2-methyl-1H-imidazol-1-yl)quinolin-3-yl)-N-(cyclohexylmethyl)propanamide], the pIC50 [1, 3] was < 5.30 and the pIC50 [2, 4] was < 5.30.
With `Cc1ccccc1-c1ccc2nc(N)c(C[C@@H](C)C(=O)NCc3cnccn3)cc2c1` [Example 80, (R)-3-(2-amino-6-o-tolylquinolin-3-yl)-2-methyl-N-(pyrazin-2-ylmethyl)propanamide] the pIC50 [2, 4] was > 6.30.
In the case of `CO[C@@H]1CCC[C@H]1NC(=O)CCc1cc2cc(-c3ccccc3C)ccc2nc1N` [Example 62, 3-(2-amino-6-o-tolylquinolin-3-yl)-N-((1R,2R)-2-methoxycyclopentyl)propanamide], the pIC50 [1, 3] was > 6.30 and the pIC50 [2, 4] was 5.30 to 6.00.
With `Nc1nc2ccc(-c3ccc(F)cc3)cc2cc1CCC(=O)NCC1CCCCC1` [Example 65, 3-(2-amino-6-(4-fluorophenyl)quinolin-3-yl)-N-(cyclohexylmethyl)propanamide] the pIC50 [1, 3] was > 6.30 and the pIC50 [2, 4] was < 5.30.
Compound `Nc1nc2ccc(-c3cccc(F)c3)cc2cc1CCC(=O)NCC1CCCCC1` [Example 43, 3-(2-amino-6-(3-fluorophenyl)quinolin-3-yl)-N-(cyclohexylmethyl)propanamide] has a pIC50 [1, 3] of 6.00 to 6.30 and a pIC50 [2, 4] of 5.30 to 6.00.
`Cc1ccccc1-c1ccc2nc(N)c(CC(C(=O)NCC3CCCCC3)C(C)C)cc2c1` (stereo not drawn) [Example 66, 2-((2-amino-6-o-tolylquinolin-3-yl)methyl)-N-(cyclohexylmethyl)-3-methylbutanamide] was tested, and the pIC50 [2, 4] was 5.30 to 6.00.
In the case of `COc1ccccc1[C@@H](C)NC(=O)[C@@H](C)Cc1cc2cc(-c3ccccc3C)ccc2nc1N` [Example 75, (S)-3-(2-amino-6-o-tolylquinolin-3-yl)-N-((R)-1-(2-methoxyphenyl)ethyl)-2-methylpropanamide], the pIC50 [1, 3] was > 6.30 and the pIC50 [2, 4] was 5.30 to 6.00.
In the case of `Cc1ccccc1-c1ccc2nc(N)c(CCC(=O)NCC(C)(C)C)cc2c1` [Example 21, 3-(2-amino-6-o-tolylquinolin-3-yl)-N-neopentylpropanamide], the pIC50 [1, 3] was > 6.30 and the pIC50 [2, 4] was < 5.30.
In the case of `CC(C)c1ccccc1-c1ccc2nc(N)c(CCC(=O)NCC3CCCCC3)cc2c1` [Example 72, 3-(2-amino-6-(2-isopropylphenyl)quinolin-3-yl)-N-(cyclohexylmethyl)propanamide], the pIC50 [1, 3] was > 6.30 and the pIC50 [2, 4] was < 5.30.
With `Cc1cccnc1-c1ccc2nc(N)c(CC(C)C(=O)NCC3CCOCC3)cc2c1` (stereo not drawn) [Example 88, 3-(2-amino-6-(3-methylpyridin-2-yl)quinolin-3-yl)-2-methyl-N-((tetrahydro-2H-pyran-4-yl)methyl)propanamide] the pIC50 [1, 3] was > 6.30 and the pIC50 [2, 4] was 6.00 to 6.30.
In the case of `Cc1ccccc1-c1ccc2nc(N)c(CCC(=O)NC3CCOC(C)(C)C3)cc2c1` (stereo not drawn) [Example 163, 3-(2-amino-6-(2-methylphenyl)-3-quinolinyl)-N-(-2,2-dimethyltetrahydro-2H-pyran-4-yl)propanamide], the pIC50 [1, 3] was > 6.30, the pIC50 [2, 4] was > 6.30 and the pIC50 ([2]; HEK293, bound stated in text, read-out: IC50 value in the BACE cell-based in-vitro assay) was > 7.00.
In the case of `Cc1ccccc1-c1cc2cc(CC(C)C(=O)NCc3ccccc3)c(N)nc2cn1` (stereo not drawn) [Example 136, 3-(2-amino-6-o-tolyl-1,7-naphthyridin-3-yl)-N-benzyl-2-methylpropanamide], the pIC50 [1, 3] was > 6.30, the pIC50 ([1]; bound stated, read-out: IC50 value in the FRET BACE enzyme assay) was > 7.30 and the pIC50 [2, 4] was 5.30 to 6.00.
For `Cc1ccccc1-c1ccc2nc(N)c(CC(C)C(=O)NCc3cnn(C)c3)cc2c1` (stereo not drawn) [Example 94, 3-(2-amino-6-o-tolylquinolin-3-yl)-2-methyl-N-((1-methyl-1H-pyrazol-4-yl)methyl)propanamide], the pIC50 [1, 3] was > 6.30 and the pIC50 [2, 4] was 5.30 to 6.00.
In the case of `Cc1cccnc1-c1cc2cc(CC(C)C(=O)NCC3CCOCC3)c(N)nc2cc1F` (stereo not drawn) [Example 97, 3-(2-amino-7-fluoro-6-(3-methyl-2-pyridinyl)-3-quinolinyl)-2-methyl-N-(tetrahydro-2H-pyran-4-ylmethyl)propanamide], the pIC50 [1, 3] was > 6.30 and the pIC50 [2, 4] was 5.30 to 6.00.
In the case of `CNC(=O)C(C)Cc1cc2cc(-c3c(C)cccc3C(=O)N3CCCC3)ccc2nc1N` (stereo not drawn) [Example 148, 3-(2-Amino-6-(2-methyl-6-(pyrrolidine-1-carbonyl)phenyl)quinolin-3-yl)-N, 2-dimethylpropanamide], the pIC50 [1, 3] was > 6.30 and the pIC50 [2, 4] was > 6.30.
With `CCC(Cc1cc2cc(-c3ccccc3C)ccc2nc1N)C(=O)NCC1CCCCC1` (stereo not drawn) [Example 60, 2-((2-amino-6-o-tolylquinolin-3-yl)methyl)-N-(cyclohexylmethyl)butanamide] the pIC50 [2, 4] was < 5.30.
In the case of `Cc1ccccc1-c1ccc2nc(N)c(CCC(=O)NCc3nccs3)cc2c1` [Example 63, 3-(2-amino-6-o-tolylquinolin-3-yl)-N-(thiazol-2-ylmethyl)propanamide], the pIC50 [1, 3] was > 6.30 and the pIC50 [2, 4] was 5.30 to 6.00.
With `Cc1ccccc1-c1ccc2nc(N)c(CC(C)C(=O)NCCC(C)(C)C)cc2c1` (stereo not drawn) [Example 90, 3-(2-amino-6-o-tolylquinolin-3-yl)-N-(3,3-dimethylbutyl)-2-methylpropanamide] the pIC50 [2, 4] was > 6.30.
Compound `Cc1ccccc1-c1ccc2nc(N)c(CCC(=O)NC3CCCCC3)cc2c1` [Example 13, 3-(2-amino-6-o-tolylquinolin-3-yl)-N-cyclohexylpropanamide] has a pIC50 [2, 4] of 6.00 to 6.30.
For `Cc1cccnc1-c1ccc2nc(N)c(CC(C)C(=O)NCCC(C)(C)C)cc2c1` (stereo not drawn) [Example 5, 3-(2-amino-6-(3-methylpyridin-2-yl)quinolin-3-yl)-N-(3,3-dimethylbutyl)-2-methylpropanamide], the pIC50 [2, 4] was 6.00 to 6.30.
With `Cc1ccccc1-c1ccc2nc(N)c(CCC(=O)N(C)C3CCCCC3)cc2c1` [Example 1, 3-(2-amino-6-o-tolylquinolin-3-yl)-N-cyclohexyl-N-methylpropanamide] the pIC50 [2, 4] was > 6.30.
Work on `Cc1ccccc1-c1ccc2nc(N)c(CC(C)C(=O)NCc3ccccc3)cc2c1` (stereo not drawn) [Example 52, 3-(2-amino-6-o-tolylquinolin-3-yl)-N-benzyl-2-methylpropanamide] yielded a pIC50 [2, 4] of 5.30 to 6.00.
Compound `Cc1ccccc1-c1ccc2nc(N)c(CCC(=O)NCC3CCCCC3)cc2c1` [Example 14, 3-(2-amino-6-o-tolylquinolin-3-yl)-N-(cyclohexylmethyl)propanamide] has a pIC50 [2, 4] of 6.00 to 6.30.
With `C[C@H](Cc1cc2cc(-c3ncccc3Cl)ccc2nc1N)C(=O)NCCC(C)(C)C` [Example 128, (R)-3-(2-amino-6-(3-chloropyridin-2-yl)quinolin-3-yl)-N-(3,3-dimethylbutyl)-2-methylpropanamide] the pIC50 [2, 4] was > 6.30.
For `Cc1ccccc1-c1ccc2nc(N)c(C[C@@H](C)C(=O)NCC3CCOCC3)cc2c1` [Example 87, (R)-3-(2-amino-6-o-tolylquinolin-3-yl)-2-methyl-N-((tetrahydro-2H-pyran-4-yl)methyl)propanamide], the pIC50 [2, 4] was > 6.30.
With `Cc1ccccc1-c1ccc2nc(N)c(CC(C)C(=O)NCc3cncs3)cc2c1` (stereo not drawn) [Example 93, 3-(2-amino-6-o-tolylquinolin-3-yl)-2-methyl-N-(thiazol-5-ylmethyl)propanamide] the pIC50 [2, 4] was > 6.30.
`Cc1ccccc1-c1ccc2nc(N)c(C[C@@H](C)C(=O)NC3CCOC(C)(C)C3)cc2c1` (stereo partly drawn) [Example 164, (2R)-3-(2-amino-6-o-tolylquinolin-3-yl)-N-(2,2-dimethyltetrahydro-2H-pyran-4-yl)-2-methylpropanamide] was tested, and the pIC50 [2, 4] was > 6.30.
With `Cc1cccnc1-c1ccc2nc(N)c(C[C@@H](C)C(=O)NCCC(C)(C)C)cc2c1` [Example 126, (R)-3-(2-amino-6-(3-methylpyridin-2-yl)quinolin-3-yl)-N-(3,3-dimethylbutyl)-2-methylpropanamide] the pIC50 [2, 4] was > 6.30.
For `CC(=O)c1ccccc1-c1ccc2nc(N)c(CC(C)C(=O)NCCC(C)(C)C)cc2c1` (stereo not drawn) [Example 156, 3-(6-(2-acetylphenyl)-2-aminoquinolin-3-yl)-N-(3,3-dimethylbutyl)-2-methylpropanamide], the pIC50 [2, 4] was > 6.30.
